Patent publication US20110053773A1, “METHODS OF IMPROVING NUTRITIONAL VALUE OF PLANTS” (UNIVERSITY OF TENNESSEE RESEARCH FOUNDATION, priority 2009, published 2011)

Experiments:
kale 'Red Russian' [1] = test: Visual injury of kale after insecticide, fungicide, PGRs, safeners (Example 4)
Method: (§1) Greenhouse and laboratory studies were conducted to ascertain the tolerance and nutritional quality differences following postemergence applications of the insecticide chlorpyrifos, the fungicide chlorothalonil, the PGRs mepiquat-chloride and paclobutrazol, and the safeners napthalic anhydride and isoxadifen-ethyl on kale ‘Red Russian’ and basil ‘Genovese’. Visual injury was rated based on general phytotoxicity, chlorosis, and visual stunting and each measurement was based on a percent scale from 0 to 100 where 0 equals no visual response and 100 equals complete plant death. Kale and basil were both harvested approximately 4 weeks after treatments and plants were pooled over replicates for content analysis of crude protein, crude amino acid content, acid detergent fiber, neutral detergent fiber, total fatty acids, and/or key mineral content (including Na, Ca, P, Mg, K, Fe, Mn, Zn, and Cu). In addition, the amounts of key individual amino acids (aspartic acid, threonine, glutamic acid, proline, glycine, cysteine, valine, leucine, isoleucine, methionine, and lysine) and composite classifications of fatty acid (saturated fatty acids, monounsaturated fatty acids, polyunsaturated fatty acids) were also analyzed from these sub-samples for kale (Tables 10-14).

basil 'Genovese' = test: Visual injury of basil after insecticide, fungicide, PGRs, safeners (Example 4)
How it was run: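 Plants were harvested about 4 weeks post-treatment and pooled across replicates to analyse protein, amino acids, fiber, fatty acids and minerals (Na, Ca, P, Mg, K, Fe, Mn, Zn, Cu). Treatments were postemergence insecticide, fungicide, PGRs and safeners. Visual injury scored 0–100% (phytotoxicity, chlorosis, stunting).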

kale 'Red Russian' [2] = test: Content analysis of kale: protein, amino acids, fiber, fatty acids, minerals (Example 4, Tables 12-14); assay type: in vivo; settings: 28 DA-A
Method: as §1

[3] = 7 DA-A, rates g ai/ha: chlropyrifos 1120, chlorothalonil 2630, paclobutrazol 3.23, mepiquat-chloride 12.3, + NIS 0.25 % v/v
[4] = 7 DA-A, rates g ai/ha: chlropyrifos 3370, chlorothalonil 7900, paclobutrazol 9.7, mepiquat-chloride 37, + NIS 0.25 % v/v
[5] = 14 DA-A, rates g ai/ha: chlropyrifos 1120, chlorothalonil 2630, paclobutrazol 3.23, mepiquat-chloride 12.3, + NIS 0.25 % v/v
[6] = 14 DA-A, rates g ai/ha: chlropyrifos 3370, chlorothalonil 7900, paclobutrazol 9.7, mepiquat-chloride 37, + NIS 0.25 % v/v
[7] = 28 DA-A, rates g ai/ha: chlropyrifos 1120, chlorothalonil 2630, paclobutrazol 3.23, mepiquat-chloride 12.3, + NIS 0.25 % v/v
[8] = 28 DA-A, rates g ai/ha: chlropyrifos 3370, chlorothalonil 7900, paclobutrazol 9.7, mepiquat-chloride 37, + NIS 0.25 % v/v
[9] = 7 DA-A, rates g ai/ha: chlropyrifos 1120, chlorothalonil 2630, paclobutrazol 3.23, mepiquat-chloride 12.3, Isoxadifen 8, Napthalic anhydride 264, + NIS 0.25 % v/v
[10] = 7 DA-A, rates g ai/ha: chlropyrifos 3370, chlorothalonil 7900, paclobutrazol 9.7, mepiquat-chloride 37, Isoxadifen 16, Napthalic anhydride 527, + NIS 0.25 % v/v
[11] = 14 DA-A, rates g ai/ha: chlropyrifos 1120, chlorothalonil 2630, paclobutrazol 3.23, mepiquat-chloride 12.3, Isoxadifen 8, Napthalic anhydride 264, + NIS 0.25 % v/v
[12] = 14 DA-A, rates g ai/ha: chlropyrifos 3370, chlorothalonil 7900, paclobutrazol 9.7, mepiquat-chloride 37, Isoxadifen 16, Napthalic anhydride 527, + NIS 0.25 % v/v
[13] = 28 DA-A, rates g ai/ha: chlropyrifos 1120, chlorothalonil 2630, paclobutrazol 3.23, mepiquat-chloride 12.3, Isoxadifen 8, Napthalic anhydride 264, + NIS 0.25 % v/v
[14] = 28 DA-A, rates g ai/ha: chlropyrifos 3370, chlorothalonil 7900, paclobutrazol 9.7, mepiquat-chloride 37, Isoxadifen 16, Napthalic anhydride 527, + NIS 0.25 % v/v
[15] = first-listed rate g ai/ha: chlropyrifos ###, chlorothalonil ###, paclobutrazol 3.2, mepiquat-chloride 12, + NIS 0.3 % v/v
[16] = rates g ai/ha: chlropyrifos 1120, chlorothalonil 2630, paclobutrazol 3.23, mepiquat-chloride 12.3, + NIS 0.25 % v/v

CC(C)(C)[C@@H](O)[C@@H](Cc1ccc(Cl)cc1)n1cncn1 (racemic) [paclobutrazol]
Phytotoxicity Chlorosis (kale 'Red Russian' [1]; [3]): 1%
Phytotoxicity General (kale 'Red Russian' [1]; [3]): 10%
Phytotoxicity Stunting (kale 'Red Russian' [1]; [3]): 6%
Phytotoxicity Chlorosis (kale 'Red Russian' [1]; [4]): 0%
Phytotoxicity General (kale 'Red Russian' [1]; [4]): 9%
Phytotoxicity Stunting (kale 'Red Russian' [1]; [4]): 11%
Phytotoxicity Chlorosis (kale 'Red Russian' [1]; [5]): 10%
Phytotoxicity General (kale 'Red Russian' [1]; [5]): 3%
Phytotoxicity Stunting (kale 'Red Russian' [1]; [5]): 19%
Phytotoxicity Chlorosis (kale 'Red Russian' [1]; [6]): 16%
Phytotoxicity General (kale 'Red Russian' [1]; [6]): 6%
Phytotoxicity Stunting (kale 'Red Russian' [1]; [6]): 28%
Phytotoxicity Chlorosis (kale 'Red Russian' [1]; [7]): 3%
Phytotoxicity General (kale 'Red Russian' [1]; [7]): 3%
Phytotoxicity Stunting (kale 'Red Russian' [1]; [7]): 21%
Phytotoxicity Chlorosis (kale 'Red Russian' [1]; [8]): 0%
Phytotoxicity General (kale 'Red Russian' [1]; [8]): 4%
Phytotoxicity Stunting (kale 'Red Russian' [1]; [8]): 19%
Phytotoxicity Chlorosis (basil 'Genovese'; [9]): 8%
Phytotoxicity General (basil 'Genovese'; [9]): 3%
Phytotoxicity Stunting (basil 'Genovese'; [9]): 3%
Phytotoxicity Chlorosis (basil 'Genovese'; [10]): 5%
Phytotoxicity General (basil 'Genovese'; [10]): 3%
Phytotoxicity Stunting (basil 'Genovese'; [10]): 2%
Phytotoxicity Chlorosis (basil 'Genovese'; [11]): 5%
Phytotoxicity General (basil 'Genovese'; [11]): 0%
Phytotoxicity Stunting (basil 'Genovese'; [11]): 7%
Phytotoxicity Chlorosis (basil 'Genovese'; [12]): 7%
Phytotoxicity General (basil 'Genovese'; [12]): 0%
Phytotoxicity Stunting (basil 'Genovese'; [12]): 5%
Phytotoxicity Chlorosis (basil 'Genovese'; [13]): 3%
Phytotoxicity General (basil 'Genovese'; [13]): 5%
Phytotoxicity Stunting (basil 'Genovese'; [13]): 8%
Phytotoxicity Chlorosis (basil 'Genovese'; [14]): 7%
Phytotoxicity General (basil 'Genovese'; [14]): 2%
Phytotoxicity Stunting (basil 'Genovese'; [14]): 2%
Alanine, Percent Increase over the Untreated Check (on a % dry matter basis) (kale 'Red Russian' [2]; [15]): −9 % check
Aspartic acid, Percent Increase over the Untreated Check (on a % dry matter basis) (kale 'Red Russian' [2]; [15]): −9 % check
Cysteine, Percent Increase over the Untreated Check (on a % dry matter basis) (kale 'Red Russian' [2]; [15]): −6 % check
Glutamic acid, Percent Increase over the Untreated Check (on a % dry matter basis) (kale 'Red Russian' [2]; [15]): −5 % check
Glycine, Percent Increase over the Untreated Check (on a % dry matter basis) (kale 'Red Russian' [2]; [15]): −12 % check
Iso-leucine, Percent Increase over the Untreated Check (on a % dry matter basis) (kale 'Red Russian' [2]; [15]): −6 % check
Leucine, Percent Increase over the Untreated Check (on a % dry matter basis) (kale 'Red Russian' [2]; [15]): −7 % check
Lysine, Percent Increase over the Untreated Check (on a % dry matter basis) (kale 'Red Russian' [2]; [15]): −8 % check
Methionine, Percent Increase over the Untreated Check (on a % dry matter basis) (kale 'Red Russian' [2]; [15]): −13 % check
Proline, Percent Increase over the Untreated Check (on a % dry matter basis) (kale 'Red Russian' [2]; [15]): −4 % check
Threonine, Percent Increase over the Untreated Check (on a % dry matter basis) (kale 'Red Russian' [2]; [15]): −9 % check
Total Amino acids, Percent Increase over the Untreated Check (on a % dry matter basis) (kale 'Red Russian' [2]; [15]): −8 % check
Total Protein, Percent Increase over the Untreated Check (on a % dry matter basis) (kale 'Red Russian' [2]; [15]): 0 % check
Valine, Percent Increase over the Untreated Check (on a % dry matter basis) (kale 'Red Russian' [2]; [15]): −6 % check
ADF, Percent Increase Over the Untreated Check (on a % dry matter basis) (kale 'Red Russian' [2]; [16]): 11 % check
Calcium, Percent Increase Over the Untreated Check (on a % dry matter basis) (kale 'Red Russian' [2]; [16]): 11 % check
Copper, Percent Increase Over the Untreated Check (on a % dry matter basis) (kale 'Red Russian' [2]; [16]): 12 % check
Iron, Percent Increase Over the Untreated Check (on a % dry matter basis) (kale 'Red Russian' [2]; [16]): −3 % check
Magnesium, Percent Increase Over the Untreated Check (on a % dry matter basis) (kale 'Red Russian' [2]; [16]): 8 % check
Manganese, Percent Increase Over the Untreated Check (on a % dry matter basis) (kale 'Red Russian' [2]; [16]): 10 % check
NDF, Percent Increase Over the Untreated Check (on a % dry matter basis) (kale 'Red Russian' [2]; [16]): −3 % check
Phosphorous, Percent Increase Over the Untreated Check (on a % dry matter basis) (kale 'Red Russian' [2]; [16]): 6 % check
